# Literature values, collected in PubChem BioAssay AID1259410 (Chemical Carcinogenesis Research Information System (CCRIS), 2018).
# Tested on: rodent tumor promotion studies, tumor incidence
# Assay: CCRIS tumor promotion studies
# [1] = Carcinogen: 7,12-DIMETHYLBENZ(A)ANTHRACENE, Doses [Carcinogen]: TOP, Route [Carcinogen]: DERMAL, Route [Promoter]: DERMAL, Species: MOUSE, Strain/Sex: FEMALE
smiles,measurement,setting,value
C[C@]12CCC(=O)C=C1CC[C@@H]1[C@@H]2CC[C@@]2(C)[C@H]1CC[C@]2(C)O,outcome,"Carcinogen: N-BIS(2-HYDROXYPROPYL)NITROSAMINE, 53609-64-6, Doses [Carcinogen]: 210 MG/100 G BW 1/WK FOR 2 WK, Doses [Promoter]: 0, 300 PPM IN DIET OF CASTRATED RATS BEGINNING POST CARCINOGEN TREATMENT AND CONTINUING FOR 28 WK (STUDY DURATION: 30 WK, Route [Carcinogen]: INTRAPERITONEAL, Route [Promoter]: ORAL, Species: RAT, Strain/Sex: WISTAR/MALE",thyroid gland: adenoma or carcinoma
O=C1OC(O)C(C(Cl)Cl)=C1Cl (stereo unspecified),outcome,"Carcinogen: N-METHYL-N'-NITRO-N-NITROSOGUANIDINE [70-25-7], SODIUM CHLORIDE [7647-14-5], Doses [Carcinogen]: 100 PPM MNNG IN DRINKING WATER FOR 8 WK, 5% SODIUM CHLORIDE IN DIET FOR 8 WK (STUDY DURATION: 65 WK), Doses [Promoter]: 30 PPM IN DRINKING WATER FOR 53 WK BEGINNING POST LAST CARCINOGEN DOSE (STUDY DURATION: 65 WK), Route [Carcinogen]: ORAL, ORAL, Route [Promoter]: ORAL, Species: RAT, Strain/Sex: WISTAR/MALE",glandular stomach: adenocarcinoma
CN(CCCC(=O)O)N=O,outcome,"Carcinogen: 1-NITROSO-1,3-DIMETHYLUREA, 13256-32-1, Doses [Carcinogen]: 10 MG/ML IN ETHYL ACETATE/CORN OIL (1:1) 1/WK FOR 2 WK, Doses [Promoter]: 0, 100 MG/L IN DRINKING WATER 5 D/WK FOR 40 WK BEGINNING 1/WK POST CARCINOGEN TREATMENT (STUDY DURATION: 43 WK), Route [Carcinogen]: GAVAGE, Route [Promoter]: ORAL, Species: RAT, Strain/Sex: F344/MALE",urinary bladder: transitional cell carcinoma
same,outcome,"Carcinogen: NITROSOBIS(2-OXOPROPYL)AMINE, 60599-38-4, Doses [Carcinogen]: 12 MG/ML IN ETHYLACETATE/CORN OIL (1:1) 2/WK FOR 2 WK, Doses [Promoter]: 0, 100 MG/L IN DRINKING WATER 5 D/WK FOR 40 WK BEGINNING 1 WK POST CARCINOGEN TREATMENT (STUDY DURATION: 43 WK), Route [Carcinogen]: GAVAGE, Route [Promoter]: ORAL, Species: RAT, Strain/Sex: F344/MALE",colon: adenocarcinoma; urinary bladder: transitional cell carcinoma
CCOc1ccc(NC(C)=O)cc1,outcome,"Carcinogen: DIHYDROXY-DI-N-PROPYLNITROSAMINE, 53609-64-6, URACIL, 66-22-8, Carcinogen: DIHYDROXY-DI-N-PROPYLNITROSAMINE, 53609-64-6, URACIL, 66-22-8, Doses [Carcinogen]: 0.1% DHPN IN DRINKING WATER AND 3% URACIL IN THE DIET FOR 4 WK, Doses [Promoter]: 0, 2% IN DIET BEGINNING 1 WK POST CARCINOGEN TREATMENT AND CONTINUING FOR 35 WK (STUDY DURATION: 40 WK), Route [Carcinogen]: ORAL, ORAL, Route [Promoter]: ORAL, Species: RAT, Strain/Sex: F344/MALE",kidney: adenoma or adenocarcinoma; urinary bladder: papilloma
same,outcome,"Carcinogen: N-BUTYL-N-(4-HYDROXYBUTYL)NITROSAMINE, 3817-11-6, Doses [Carcinogen]: 0.05% IN DRINKING WATER FOR 4 WK, Doses [Promoter]: 0, 2% IN DIET FOR 8 WK AND 3 WK WITH A 4 WK INTERVAL BETWEEN TREATMENTS ADMINISTERED PRIOR TO CARCINOGEN TREATMENT (STUD, Route [Carcinogen]: ORAL, Route [Promoter]: ORAL, Species: MOUSE, Strain/Sex: NON/SHI/MALE",renal pelvis: carcinoma
same,outcome,"Carcinogen: N-BUTYL-N-(4-HYDROXYBUTYL)NITROSAMINE, Doses [Carcinogen]: 0.01, 0.05% IN DRINKING WATER FOR 4 WK, Doses [Promoter]: 2.5% IN DIET FOR 30 WK FOLLOWED BY CONTROL DIET FOR 6 WK, Route [Carcinogen]: ORAL, Route [Promoter]: ORAL, Species: RAT, Strain/Sex: WISTAR/MALE","urinary bladder: papilloma, carcinoma"
O=c1[nH]cnc2[nH]ncc12,outcome,"Carcinogen: N-(4-(5-NITRO-2-FURYL)-2-THIAZOLYL)FORMAMIDE, Doses [Carcinogen]: DIET, Doses [Promoter]: IN DIET, Route [Carcinogen]: ORAL, Route [Promoter]: ORAL, Species: RAT, Strain/Sex: FEMALE",urinary bladder
COC(=O)[C@H]1[C@@H](OC(=O)c2ccccc2)C[C@@H]2CC[C@H]1N2C,outcome,"Carcinogen: MURINE SARCOMA VIRUS, Doses [Promoter]: 0, 0.5 MG/KG/D FOR 3 D BEGINNING ON DAY OF VIRUS INJECTION (STUDY DURATION: 20 D), Route [Carcinogen]: INTRAMUSCULAR, Route [Promoter]: SUBCUTANEOUS, Species: MOUSE, Strain/Sex: BALB/FEMALE",injection site: tumor
Cc1ncc([N+](=O)[O-])n1CCO,outcome,"Carcinogen: 1,2-DIMETHYLHYDRAZINE, 540-73-8, Doses [Carcinogen]: 40 MG/KG/WK FOR 20 WK, Doses [Promoter]: 0, 18 MG/KG/D FOR 20 WK (STUDY DURATION: 20 WK), Route [Carcinogen]: SUBCUTANEOUS, Route [Promoter]: GAVAGE, Species: RAT, Strain/Sex: WISTAR/MALE",colon: tumor
same,outcome,"Carcinogen: UV IRRADIATION, Doses [Carcinogen]: 0.53 J/CM2 INCREASED BY 20% EVERY 2 WK TO 1.60 J/CM2 AND MAINTAINED AT 1.60 J/CM2 UNTIL DEATH, ADMINISTERED 5 D/WK FOR 1, Doses [Promoter]: 0, 15 UG/G BEGINNING 2 WK POST FIRST CARCINOGEN DOSE ADMINISTERED 2 HR PRIOR TO EACH CARCINOGEN DOSE (STUDY DURATION: 30, Route [Carcinogen]: DERMAL, Route [Promoter]: INTRAPERITONEAL, Species: MOUSE, Strain/Sex: SKH/HRL/FEMALE",skin: tumor
Oc1cc(Cl)c(Cl)cc1Cl,outcome,[1],integumentary system (skin)
O=[N+]([O-])c1ccc2ccc3cccc4ccc1c2c34,outcome,"Carcinogen: POLYCHLORINATED BIPHENYLS, 1336-36-3, Doses [Carcinogen]: 2.5 MG/KG ONCE, Doses [Promoter]: 0, 1575 MG/KG IN DMSO ADMINISTERED IN 17 DOSES 3/WK BEGINNING POST CARCINOGEN TREATMENT (STUDY DURATION: 18 WK), Route [Carcinogen]: INTRAPERITONEAL, Route [Promoter]: INTRAPERITONEAL, Species: MOUSE, Strain/Sex: A/J/MALE",lung: adenoma and adenocarcinoma
C=Cc1c(C)c2[n-]c1=CC1=NC(=CC3=C(C)C(=C([O-])[O-])C(=N3)C(CC(=O)[O-])=C3N=C(C=2)C(C)C3CCC(=O)[O-])C(CC)=C1C.[Cu+2].[Na+].[Na+].[Na+] (stereo unspecified),outcome,"Carcinogen: 1,2-DIMETHYLHYDRAZINE, 540-73-8, Doses [Carcinogen]: 20 MG/KG/BW 1/WK FOR 5 WK, Doses [Promoter]: 0, 1.5 MILLIMOLAR IN DRINKING WATER BEGINNING POST CARCINOGEN TREATMENT AND CONTINUING FOR DURATION OF STUDY (STUDY DURA, Route [Carcinogen]: INTRAPERITONEAL, Route [Promoter]: ORAL, Species: RAT, Strain/Sex: F344/MALE",colorectal: tumor
same,outcome,"Carcinogen: 1,2-DIMETHYLHYDRAZINE, 540-73-8, Doses [Carcinogen]: 20 MG/KG/BW 1/WK FOR 5 WK, Doses [Promoter]: 0, 1.5 MILLIMOLAR IN DRINKING WATER THROUGHOUT THE STUDY (STUDY DURATION: 25 WK), Route [Carcinogen]: INTRAPERITONEAL, Route [Promoter]: ORAL, Species: RAT, Strain/Sex: F344/MALE",colorectal: tumor
Oc1ccc(I)cc1,outcome,[1],integumentary system (skin)
S=C=NCc1ccccc1,outcome,"Carcinogen: DIETHYLNITROSAMINE, 55-18-5, N-BUTYL-N-(4-HYDROXYBUTYL)NITROSAMINE, 3817-11-6, Carcinogen: DIETHYLNITROSAMINE, 55-18-5, N-BUTYL-N-(4-HYDROXYBUTYL)NITROSAMINE, 3817-11-6, Doses [Carcinogen]: 200 MG/KG DEN ONCE THEN 0.05% BBN IN DRINKING WATER FOR 4 WK, Doses [Promoter]: 0, 0.1% IN DIET FOR 32 WK BEGINNING 3 D POST CARCINOGEN TREATMENT (STUDY DURATION:36 WK), Route [Carcinogen]: INTRAPERITONEAL, ORAL, Route [Promoter]: ORAL, Species: RAT, Strain/Sex: F344/MALE","urinary bladder: papilloma, carcinoma"
O=c1cc(CO)occ1O,outcome,"Carcinogen: N-NITROSOBIS(2-HYDROXYPROPYL)AMINE;53609-64-6, Doses [Carcinogen]: 2000 MG/KG BW ONCE, Doses [Promoter]: 0, 0.002%, 0.008%, 0.03%, 0.125%, 0.5%, 2% IN DIET FOR 20 WK BEGINNING 1 WK POST CARCINOGEN TREATMENT (STUDY DURATION: 2, Doses [Promoter]: 0, 0.002%, 0.008%, 0.03%, 0.125%, 0.5%, 2% IN DIET FOR 20 WK BEGINNING 1 WK POST CARCINOGEN TREATMENT (STUDY DURATION: 2, Route [Carcinogen]: SUBCUTANEOUS, Route [Promoter]: ORAL, Species: RAT, Strain/Sex: F344/MALE","thyroid gland: adenoma, carcinoma"
CC(C)CCC[C@@H](C)[C@H]1CC[C@H]2[C@@H]3CC=C4C[C@@H](O)CC[C@]4(C)[C@H]3CC[C@]12C,outcome,"Carcinogen: N-NITROSOBIS(2-OXOPROPYL)AMINE, 60599-38-4, Doses [Carcinogen]: 70 MG/KG ONCE, Doses [Promoter]: 0, 0.5% IN DIET BEGINNING 2 WK POST CARCINOGEN DOSE AND CONTINUING FOR 16 WK (STUDY DURATION: 18 WK), Route [Carcinogen]: SUBCUTANEOUS, Route [Promoter]: ORAL, Species: HAMSTER, Strain/Sex: SYRIAN/FEMALE",pancreas: adenocarcinoma
CCCCCCC(=O)C/C=C/CCCCCCCC(=O)OC,outcome,"Carcinogen: 4-NITROQUINOLINE-1-OXIDE, Doses [Carcinogen]: IG, Doses [Promoter]: IN DIET, Route [Carcinogen]: GAVAGE, Route [Promoter]: ORAL, Species: MOUSE, Strain/Sex: MALE,FEMALE",forestomach
same,outcome,"Carcinogen: 7,12-DIMETHYLBENZ(A)ANTHRACENE, Doses [Carcinogen]: TOP, Route [Carcinogen]: DERMAL, Route [Promoter]: DERMAL, Species: MOUSE, Strain/Sex: MALE,FEMALE",integumentary system (skin)
